The values below come from patent publication US10201552B2, “Method of increasing the bioavailability of an HIV drug” (HOWARD UNIVERSITY, priority 2013, dated 2019).

Where only a bound is given, the exact number is not on record here.

For data set [1], the system named is Unactivated Human T-Cells. As to the kind of experiment: Uptake of radio labeled Tenofovir in human T-cells in presence and absence of ABC efflux pump inhibitors. The format is cell-based. To be noted: with specific MRP, BCRP and Pgp inhibitors vs without. The protocol: ABC efflux pump inhibitors. Briefly, human T-cells in the culture media (1 million/mL) were transferred to 15 mL centrifuge tubes. Radio labeled Tenofovir was added to the control tube and radio labeled Tenofovir along with defined concentrations of efflux pump inhibitors were added to the treatment tubes. The tubes were incubated for 15 minutes under culture conditions (37° C., 5% CO2/95% relative humidity). Following incubation, the tubes were centrifuged at 2000 rpm for 15 min and the supernatant is discarded. Ice cold stop solution (210 mM KCl, 2 mM HEPES [pH 7.4]) was added to stop the reaction. The cells were resuspended in stop solution to ensure washing and centrifuged at 2000 rpm for 15 min. The treatment with stop solution, washing and centrifugation is repeated to ensure through washing. 1 mL lysis solution (0.3 M NaOH, 0.1% Triton X-100) was added to the cell pellet and samples and incubated overnight to ensure complete cell lysis. Intracellular concentrations were analyzed by Beckman LS 6500 automated Scintillation Counter.

The conditions of data set [2]: administered orally as disoproxil ester prodrug; cited from earlier work.

In the case of `C[C@H](Cn1cnc2c(N)ncnc21)OCP(=O)(O)O` [Tenofovir], the “intracellular accumulation of Tenofovir” value in data set [1] was “significant increase”. Besides, in data set [2], the bioavailability is at least 20%.
